Data from BindingDB's records for doi:10.1021/acs.jmedchem.9b00607 (National Institute On Drug Abuse-Intramural Research Program, 2019).

Target: D(3) dopamine receptor (Homo sapiens, UniProt P35462)
Assay: Agonist activity at human D3 receptor expressed in CHO cells assessed as stimulation of […] mitogenesis

D(3) dopamine receptor, sequence (P35462 as listed by the source): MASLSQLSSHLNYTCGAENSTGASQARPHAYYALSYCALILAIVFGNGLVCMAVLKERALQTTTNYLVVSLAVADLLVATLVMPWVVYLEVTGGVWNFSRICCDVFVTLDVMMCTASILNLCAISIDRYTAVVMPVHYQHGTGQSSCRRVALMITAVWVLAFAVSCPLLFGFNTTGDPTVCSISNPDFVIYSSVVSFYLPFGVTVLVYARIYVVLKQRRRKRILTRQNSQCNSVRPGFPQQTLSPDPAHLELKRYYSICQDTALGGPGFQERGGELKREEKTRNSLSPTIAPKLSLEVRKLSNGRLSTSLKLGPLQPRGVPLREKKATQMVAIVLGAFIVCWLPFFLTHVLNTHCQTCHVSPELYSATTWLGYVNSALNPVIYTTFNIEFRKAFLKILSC

Row | SMILES | EC50 [µM]
1 | CCc1cc(Cl)c(OC)c(N2CCN(C[C@H](O)CCNC(=O)c3cc4ccccc4[nH]3)CC2)c1 | > 3.2
2 | CCc1cc(Cl)c(OC)c(N2CCN(C[C@@H](O)CCNC(=O)c3cc4ccccc4[nH]3)CC2)c1 | > 6.8
